Results on one substance are retold here after patent US9211325B2, “Peptide adjuvants” (priority 2008, dated 2015).

“Also recorded” adds a separate entry of the source.

The test system of this experiment is H5N1 A\Hanoi\30408\2005. Also noted: species or system BALB/c mice. The following applies: mouse, in vivo.

As for “KWCEC (Short peptide sequence not known to occur in nature) [5mer4]”, the “clinical signs of disease” value is reported as “no clinical signs of disease”, the survival was determined as 90%, the “survival (protected from death)” value worked out at 50% and the weight loss result was “minimal weight loss; also recorded: no statistically significant weight loss”.
